Assays:
Experiment in all cases: minimum inhibitory concentration (ETEST)
Neisseria cinerea = settings: population: general population, antibiotic use in previous 6 months: No
Description: (§1)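 Oropharyngeal Neisseria isolates from MSM and employees in Belgium were identified to species by MALDI-TOF MS. MICs of azithromycin, ceftriaxone and ciprofloxacin were determined by ETEST on GC agar after 24 h at 36.5 °C and 5-7% CO2, in mg/L. Values beyond the strip range are reported as >256 (azithromycin) or <0.016 (ceftriaxone); isolates that did not grow are NA.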

Neisseria elongata = settings: population: general population, antibiotic use in previous 6 months: No
Description: as §1

Neisseria gonorrhoeae = settings: isolate id (sample isolate): 19113052_3; population: MSM; antibiotic use in previous 6 months: No
Description: as §1

Neisseria oralis = settings: population: general population, antibiotic use in previous 6 months: No
Description: as §1

[1] = test system: Neisseria subflava/flavescens/perflava
Description: as §1

Measured: minimum inhibitory concentration

O=C(O)c1cn(C2CC2)c2cc(N3CCNCC3)c(F)cc2c1=O [ciprofloxacin]
3 µg/mL: [1]; isolate id (sample isolate): 19041762_1.1, population: MSM, antibiotic use in previous 6 months: Yes
2 µg/mL: Neisseria gonorrhoeae | [1]; isolate id (sample isolate): Co000777_4, population: general population, antibiotic use in previous 6 months: No | [1]; isolate id (sample isolate): Co000781_3, population: general population, antibiotic use in previous 6 months: No
1 µg/mL: [1]; isolate id (sample isolate): 19042756_1, population: MSM, antibiotic use in previous 6 months: Yes | [1]; isolate id (sample isolate): Co000767_2, population: general population, antibiotic use in previous 6 months: No | [1]; isolate id (sample isolate): Co000771_2, population: general population, antibiotic use in previous 6 months: No | [1]; isolate id (sample isolate): Co000775_1, population: general population, antibiotic use in previous 6 months: No | [1]; isolate id (sample isolate): Co000777_1, population: general population, antibiotic use in previous 6 months: No
1.5 µg/mL: [1]; isolate id (sample isolate): 19041762_1, population: MSM, antibiotic use in previous 6 months: Yes
0.004 µg/mL: Neisseria elongata; isolate id (sample isolate): Co000767_3 | Neisseria elongata; isolate id (sample isolate): Co000780_1
0.19 µg/mL: [1]; isolate id (sample isolate): 19052394_1, population: MSM, antibiotic use in previous 6 months: Yes | [1]; isolate id (sample isolate): 19052394_1.1, population: MSM, antibiotic use in previous 6 months: Yes | [1]; isolate id (sample isolate): Co000788_5, population: general population, antibiotic use in previous 6 months: No
0.047 µg/mL: [1]; isolate id (sample isolate): Co000764_2, population: general population, antibiotic use in previous 6 months: No | [1]; isolate id (sample isolate): Co000766_1, population: general population, antibiotic use in previous 6 months: No | [1]; isolate id (sample isolate): Co000770_6, population: general population, antibiotic use in previous 6 months: No | [1]; isolate id (sample isolate): Co000774_2, population: general population, antibiotic use in previous 6 months: No | [1]; isolate id (sample isolate): Co000776_2, population: general population, antibiotic use in previous 6 months: No | [1]; isolate id (sample isolate): Co000776_3, population: general population, antibiotic use in previous 6 months: No | [1]; isolate id (sample isolate): Co000786_1, population: general population, antibiotic use in previous 6 months: No
0.38 µg/mL: [1]; isolate id (sample isolate): 19043201_2.1, population: MSM, antibiotic use in previous 6 months: No | [1]; isolate id (sample isolate): 19050949_2, population: MSM, antibiotic use in previous 6 months: No | [1]; isolate id (sample isolate): 19050949_2.1, population: MSM, antibiotic use in previous 6 months: No | [1]; isolate id (sample isolate): 19051904_2, population: MSM, antibiotic use in previous 6 months: Yes | [1]; isolate id (sample isolate): 19051904_3, population: MSM, antibiotic use in previous 6 months: Yes | [1]; isolate id (sample isolate): 19060089_1, population: MSM, antibiotic use in previous 6 months: Yes | [1]; isolate id (sample isolate): Co000761_5, population: general population, antibiotic use in previous 6 months: No | [1]; isolate id (sample isolate): Co000767_5, population: general population, antibiotic use in previous 6 months: No | [1]; isolate id (sample isolate): Co000767_7, population: general population, antibiotic use in previous 6 months: No | [1]; isolate id (sample isolate): Co000773_1, population: general population, antibiotic use in previous 6 months: No | [1]; isolate id (sample isolate): Co000773_2, population: general population, antibiotic use in previous 6 months: No
0.5 µg/mL: [1]; isolate id (sample isolate): 19050514_1, population: MSM, antibiotic use in previous 6 months: Yes | [1]; isolate id (sample isolate): Co000769_1, population: general population, antibiotic use in previous 6 months: No | [1]; isolate id (sample isolate): Co000769_4, population: general population, antibiotic use in previous 6 months: No | [1]; isolate id (sample isolate): Co000770_4, population: general population, antibiotic use in previous 6 months: No | [1]; isolate id (sample isolate): Co000777_2, population: general population, antibiotic use in previous 6 months: No | [1]; isolate id (sample isolate): Co000781_1, population: general population, antibiotic use in previous 6 months: No
0.75 µg/mL: [1]; isolate id (sample isolate): 19042756_2, population: MSM, antibiotic use in previous 6 months: Yes | [1]; isolate id (sample isolate): Co000761_3, population: general population, antibiotic use in previous 6 months: No | [1]; isolate id (sample isolate): Co000780_4, population: general population, antibiotic use in previous 6 months: No | [1]; isolate id (sample isolate): Co000781_4, population: general population, antibiotic use in previous 6 months: No | [1]; isolate id (sample isolate): Co000784_2, population: general population, antibiotic use in previous 6 months: No
0.25 µg/mL: [1]; isolate id (sample isolate): 19041780_1, population: MSM, antibiotic use in previous 6 months: Yes | [1]; isolate id (sample isolate): 19042150_1, population: MSM, antibiotic use in previous 6 months: Yes | [1]; isolate id (sample isolate): 19043201_1.1, population: MSM, antibiotic use in previous 6 months: No | [1]; isolate id (sample isolate): 19043201_3, population: MSM, antibiotic use in previous 6 months: No | [1]; isolate id (sample isolate): 19043274_3, population: MSM, antibiotic use in previous 6 months: Yes | [1]; isolate id (sample isolate): 19050474_1, population: MSM, antibiotic use in previous 6 months: No | [1]; isolate id (sample isolate): Co000770_2, population: general population, antibiotic use in previous 6 months: No | [1]; isolate id (sample isolate): Co000775_3, population: general population, antibiotic use in previous 6 months: No | [1]; isolate id (sample isolate): Co000785_2, population: general population, antibiotic use in previous 6 months: No | [1]; isolate id (sample isolate): Co000788_2, population: general population, antibiotic use in previous 6 months: No
0.064 µg/mL: [1]; isolate id (sample isolate): Co000783_1, population: general population, antibiotic use in previous 6 months: No
> 32 µg/mL: [1]; isolate id (sample isolate): Co000778_2, population: general population, antibiotic use in previous 6 months: No | [1]; isolate id (sample isolate): Co000787_1, population: general population, antibiotic use in previous 6 months: No
0.023 µg/mL: Neisseria elongata; isolate id (sample isolate): Co000783_4 | Neisseria oralis; isolate id (sample isolate): Co000766_2 | Neisseria oralis; isolate id (sample isolate): Co000774_1 | [1]; isolate id (sample isolate): Co000765_2, population: general population, antibiotic use in previous 6 months: No | [1]; isolate id (sample isolate): Co000772_1, population: general population, antibiotic use in previous 6 months: No | [1]; isolate id (sample isolate): Co000782_4, population: general population, antibiotic use in previous 6 months: No | [1]; isolate id (sample isolate): Co000784_1, population: general population, antibiotic use in previous 6 months: No | [1]; isolate id (sample isolate): Co000784_5, population: general population, antibiotic use in previous 6 months: No | [1]; isolate id (sample isolate): Co000787_2, population: general population, antibiotic use in previous 6 months: No | [1]; isolate id (sample isolate): Co000787_4, population: general population, antibiotic use in previous 6 months: No
0.012 µg/mL: Neisseria cinerea; isolate id (sample isolate): Co000782_1 | Neisseria oralis; isolate id (sample isolate): Co000763_1 | Neisseria oralis; isolate id (sample isolate): Co000776_1.1 | Neisseria oralis; isolate id (sample isolate): Co000779_2 | [1]; isolate id (sample isolate): Co000761_2, population: general population, antibiotic use in previous 6 months: No | [1]; isolate id (sample isolate): Co000765_4, population: general population, antibiotic use in previous 6 months: No | [1]; isolate id (sample isolate): Co000772_5, population: general population, antibiotic use in previous 6 months: No | [1]; isolate id (sample isolate): Co000778_1, population: general population, antibiotic use in previous 6 months: No | [1]; isolate id (sample isolate): Co000778_3, population: general population, antibiotic use in previous 6 months: No | [1]; isolate id (sample isolate): Co000782_3, population: general population, antibiotic use in previous 6 months: No | [1]; isolate id (sample isolate): Co000783_5, population: general population, antibiotic use in previous 6 months: No | [1]; isolate id (sample isolate): Co000785_4, population: general population, antibiotic use in previous 6 months: No
0.016 µg/mL: Neisseria oralis; isolate id (sample isolate): Co000761_7 | Neisseria oralis; isolate id (sample isolate): Co000770_1 | Neisseria oralis; isolate id (sample isolate): Co000776_1 | [1]; isolate id (sample isolate): 19050949_1, population: MSM, antibiotic use in previous 6 months: No | [1]; isolate id (sample isolate): 19062994_1, population: MSM, antibiotic use in previous 6 months: Yes | [1]; isolate id (sample isolate): Co000762_3, population: general population, antibiotic use in previous 6 months: No | [1]; isolate id (sample isolate): Co000762_4, population: general population, antibiotic use in previous 6 months: No | [1]; isolate id (sample isolate): Co000765_3, population: general population, antibiotic use in previous 6 months: No | [1]; isolate id (sample isolate): Co000767_4, population: general population, antibiotic use in previous 6 months: No | [1]; isolate id (sample isolate): Co000771_5, population: general population, antibiotic use in previous 6 months: No | [1]; isolate id (sample isolate): Co000772_2, population: general population, antibiotic use in previous 6 months: No | [1]; isolate id (sample isolate): Co000772_4, population: general population, antibiotic use in previous 6 months: No | [1]; isolate id (sample isolate): Co000775_2, population: general population, antibiotic use in previous 6 months: No | [1]; isolate id (sample isolate): Co000782_2, population: general population, antibiotic use in previous 6 months: No | [1]; isolate id (sample isolate): Co000785_1, population: general population, antibiotic use in previous 6 months: No | [1]; isolate id (sample isolate): Co000786_2, population: general population, antibiotic use in previous 6 months: No | [1]; isolate id (sample isolate): Co000788_3, population: general population, antibiotic use in previous 6 months: No | [1]; isolate id (sample isolate): Co000789_1, population: general population, antibiotic use in previous 6 months: No
0.032 µg/mL: Neisseria cinerea; isolate id (sample isolate): Co000776_4 | Neisseria cinerea; isolate id (sample isolate): Co000776_5 | [1]; isolate id (sample isolate): 19042150_3, population: MSM, antibiotic use in previous 6 months: Yes | [1]; isolate id (sample isolate): Co000764_1, population: general population, antibiotic use in previous 6 months: No
0.094 µg/mL: [1]; isolate id (sample isolate): Co000783_2, population: general population, antibiotic use in previous 6 months: No
0.006 µg/mL: Neisseria cinerea; isolate id (sample isolate): Co000769_3 | Neisseria oralis; isolate id (sample isolate): Co000790_5 | [1]; isolate id (sample isolate): Co000767_6, population: general population, antibiotic use in previous 6 months: No | [1]; isolate id (sample isolate): Co000768_1, population: general population, antibiotic use in previous 6 months: No | [1]; isolate id (sample isolate): Co000771_3, population: general population, antibiotic use in previous 6 months: No | [1]; isolate id (sample isolate): Co000790_2, population: general population, antibiotic use in previous 6 months: No | [1]; isolate id (sample isolate): Co000790_4, population: general population, antibiotic use in previous 6 months: No
0.125 µg/mL: [1]; isolate id (sample isolate): Co000785_3, population: general population, antibiotic use in previous 6 months: No
0.008 µg/mL: [1]; isolate id (sample isolate): Co000761_6, population: general population, antibiotic use in previous 6 months: No | [1]; isolate id (sample isolate): Co000763_2, population: general population, antibiotic use in previous 6 months: No | [1]; isolate id (sample isolate): Co000766_3, population: general population, antibiotic use in previous 6 months: No | [1]; isolate id (sample isolate): Co000767_1, population: general population, antibiotic use in previous 6 months: No | [1]; isolate id (sample isolate): Co000768_2, population: general population, antibiotic use in previous 6 months: No | [1]; isolate id (sample isolate): Co000769_2, population: general population, antibiotic use in previous 6 months: No | [1]; isolate id (sample isolate): Co000772_6, population: general population, antibiotic use in previous 6 months: No
